Test results from patent US20250266123A1, “IN SILICO METHOD OF IDENTIFYING ALLOSTERIC HECT E3-LIGASE INHIBITORS” (Ramot at Tel-Aviv University Ltd., priority 2024, published 2025).

Assays:
human SMURF1 promoter = experiment: Human SMURF1 promoter-GFP reporter in HEK293 cells; format: cell-based; settings: HEK293 stably transfected
Experimental: (§1) FIG. 13. (A) Screen for modulators of SMURF1 mRNA abundance in PASMCs. Human PASMCs from PAH patients were treated with agents that are associated with PAH, including cytokines, chemokines, growth factors, and small molecule pathway probes, and were cultured under hypoxic conditions to identify modulators of SMURF1 mRNA (n=2 donors). […] The human SMURF1 promoter was stably transfected into HEK293 cells upstream of a GFP sequence.

E6AP = molecular target: T1, E6AP (Homo sapiens, UniProt Q05086, K489R); experiment: E. coli split-CAT E6AP reporter system; format: cell-based
T1 construct: Similarly, E6AP453-852: wild-type HECTd, K466R or catalytic dead HECTd-C820A; expressed in transfected cells; host or cells: Mach1-T1R E. coli
T1 sequence (Q05086 453-852 isoform Q05086-2 K466R): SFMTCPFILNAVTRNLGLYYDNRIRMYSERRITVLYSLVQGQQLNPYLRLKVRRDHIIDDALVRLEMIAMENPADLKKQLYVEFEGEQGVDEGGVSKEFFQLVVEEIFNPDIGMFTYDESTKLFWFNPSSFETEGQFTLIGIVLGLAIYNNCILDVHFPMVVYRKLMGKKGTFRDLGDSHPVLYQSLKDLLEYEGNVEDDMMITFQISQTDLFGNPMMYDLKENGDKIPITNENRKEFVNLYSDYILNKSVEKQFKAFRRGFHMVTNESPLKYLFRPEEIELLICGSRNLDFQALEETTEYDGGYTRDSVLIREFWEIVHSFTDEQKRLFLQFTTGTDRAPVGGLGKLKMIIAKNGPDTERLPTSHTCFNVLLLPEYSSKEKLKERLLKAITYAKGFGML
Experimental: (§2) Assays were performed as previously described.84,85 The selection plasmids were co-transformed into Mach1™-T1R E. coli cells. All growth assays were performed in LB agar or liquid at 37° C. Optimization of chloramphenicol (CAM) concentrations were performed according to the largest growth shift between the hyperactive mutant to the catalytic dead mutant in SMURF1 (ΔC2-K381R; ΔC2-C725A) or in E6AP (HECTd-K466R; HECTd-C820A) at each assay as previously described. The disclosers constructed a split-CAT based E3-dependent Rpn10 full length ubiquitylation cascade to monitor the effect of inhibitor and point mutations in ubiquitin E3 ligases. Specifically, yeast Rpn10 was tethered to N-CAT as a general ubiquitylation target and co-expressed with C-CAT-Ub, E1, E2 and human SMURF1235-757: wild-type DC2, K381R or catalytic dead C725A. Similarly, E6AP453-852: wild-type HECTd, K466R or catalytic dead HECTd-C820A.
To inspect ubiquitylation of BMPR2, the disclosures substituted Rpn10 with BMPR2174-558 cytosolic portion fused to the N-CAT. […] Inhibition assays were performed in liquid LB using 96 well-plate with Tecan Sunrise reader high intensity shaking for 9.5 mins rest for 10, 5 mins shake and read at 595 nm. Growth was monitored between 12-36 Hrs as indicated. […]

E1, E2, CAT = experiment: Split-CAT system counter-checks (E1, E2, CAT activity, E. coli toxicity); format: cell-based
Experimental: as §2
To inspect ubiquitylation of BMPR2, the disclosures substituted Rpn10 with BMPR2174-558 cytosolic portion fused to the N-CAT. […] Inhibition assays were performed in liquid LB using 96 well-plate with Tecan Sunrise reader high intensity shaking for 9.5 mins rest for 10, 5 mins shake and read at 595 nm. Growth was monitored between 12-36 Hrs as indicated.

SMURF1 mRNA = experiment: Screen for modulators of SMURF1 mRNA abundance in PASMCs; format: cell-based, human; settings: PASMCs from PAH patients; normalized Ct values
Experimental: as §1

Compound | GFP signal (SMURF1 promoter) (human SMURF1 promoter) | Inhibition of E6AP S739L, R740G double mutant (E6AP; escape mutant, FIG. 6K) | E6AP activity (E6AP; hyperactive HECTd-K466R E6AP, FIG. 6I) | Effect on E1, E2, or CAT activities (E1, E2, CAT) | SMURF1 expression (mRNA) (SMURF1 mRNA)
CO/C1=C\C(C)=C\[C@@H](C)[C@@H](O)[C@@H](C)C/C(C)=C/C=C/[C@H](OC)[C@@H]([C@@H](C)[C@@H](O)[C@H](C)[C@@]2(O)C[C@@H](O)[C@H](C)[C@@H](C(C)C)O2)OC1=O [bafilomycin A1, reference compound] | increased GFP signal |  |  |  | 
Cc1ccc(-n2ccnc2N2CCN(C(=O)C34CC5CC(CC(C5)C3)C4)CC2)cc1 [i-27, 1-[1-(4-methylphenyl)-imidazol-2-yl]-4-[adamantane-1-carbonyl]piperazine] |  | inhibition was reduced twofold | reduced E6AP activity in a dose-dependent manner | without affecting E1, E2, or CAT activities | 
TGFβ1: transforming growth factor beta 1, agent in SMURF1 modulator screen | increased GFP signal |  |  |  | increase SMURF1 expression
